From ChEMBL document CHEMBL1149186, “Triacylglycerols based on 2-(N-tert-butoxycarbonylamino)oleic acid are potent inhibitors of pancreatic lipase” (J Med Chem, 2004)

Experiments:
[1] = biological target: T1, Gastric triacylglycerol lipase (Homo sapiens) (UniProt P07098); test: Inhibition constant (molar fraction of compound) on human gastric lipase (HGL) at a constant surface pressure of 17 […]; settings: Stomach
T1 sequence (whole entry): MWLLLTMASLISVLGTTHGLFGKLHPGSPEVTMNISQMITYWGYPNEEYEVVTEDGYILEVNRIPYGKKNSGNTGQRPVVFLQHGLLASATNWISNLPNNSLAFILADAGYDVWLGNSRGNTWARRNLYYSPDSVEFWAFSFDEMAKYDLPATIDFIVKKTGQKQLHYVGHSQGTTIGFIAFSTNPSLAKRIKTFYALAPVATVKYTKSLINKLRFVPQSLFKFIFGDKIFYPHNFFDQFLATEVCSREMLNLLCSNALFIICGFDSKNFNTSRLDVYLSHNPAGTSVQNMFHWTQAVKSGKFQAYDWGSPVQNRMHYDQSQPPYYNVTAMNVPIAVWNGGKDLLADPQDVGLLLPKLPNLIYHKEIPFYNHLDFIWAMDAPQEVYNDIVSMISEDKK

[2] = biological target: T1, Gastric triacylglycerol lipase (Homo sapiens); test: Inhibition constant (molar fraction of compound) on human gastric lipase (HGL) at a constant surface pressure of 27 […]; settings: Stomach
[3] = biological target: T2, Pancreatic triacylglycerol lipase (Homo sapiens) (UniProt P16233); test: Inhibition constant (molar fraction of compound) on human pancreatic lipase (HPL) at a constant surface pressure of 14 […]
T2 sequence (whole entry): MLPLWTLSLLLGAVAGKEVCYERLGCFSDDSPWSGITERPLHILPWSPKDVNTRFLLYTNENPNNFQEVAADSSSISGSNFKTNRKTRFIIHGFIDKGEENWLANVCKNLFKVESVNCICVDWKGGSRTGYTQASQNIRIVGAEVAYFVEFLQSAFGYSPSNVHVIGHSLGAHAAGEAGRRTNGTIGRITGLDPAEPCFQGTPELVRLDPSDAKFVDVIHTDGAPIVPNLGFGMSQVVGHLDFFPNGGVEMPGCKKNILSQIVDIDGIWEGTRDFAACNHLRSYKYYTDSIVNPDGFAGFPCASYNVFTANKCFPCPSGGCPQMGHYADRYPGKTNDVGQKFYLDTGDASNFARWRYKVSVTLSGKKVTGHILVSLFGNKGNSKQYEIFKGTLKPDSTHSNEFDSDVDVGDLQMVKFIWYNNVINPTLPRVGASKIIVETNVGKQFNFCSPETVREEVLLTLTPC

[4] = biological target: T2, Pancreatic triacylglycerol lipase (Homo sapiens); test: Inhibition constant (molar fraction of compound) on human pancreatic lipase (HPL) at a constant surface pressure of 25 […]

Row | Alpha 50 (molar fraction) [1] | Alpha 50 (molar fraction) [2] | Alpha 50 (molar fraction) [3] | Alpha 50 (molar fraction) [4] | Structure (SMILES)
1 | 0.15 | 0.057 | 0.009 | 0.003 | CCCCCCCC/C=C\CCCCCC[C@H](NC(=O)OC(C)(C)C)C(=O)OCC(COC(=O)[C@H](CCCCCC/C=C\CCCCCCCC)NC(=O)OC(C)(C)C)OC(=O)[C@H](CCCCCC/C=C\CCCCCCCC)NC(=O)OC(C)(C)C
2 | – | 0.104 | – | 0.002 | CCCCCCCC/C=C\CCCCCC[C@H](NC(=O)OC(C)(C)C)C(=O)OCC(C)(COC(=O)[C@H](CCCCCC/C=C\CCCCCCCC)NC(=O)OC(C)(C)C)OC(=O)[C@H](CCCCCC/C=C\CCCCCCCC)NC(=O)OC(C)(C)C
